Laboratory results as given in PMC7466750, “Crystal structures of human ENPP1 in apo and bound forms” (Acta Crystallographica. Section D, Structural Biology, 2020).

Tests used:
hENPP1 [1] = target: T1, hENPP1 (Homo sapiens, UniProt P22413); test: Surface plasmon resonance (SPR) binding to immobilised hENPP1 98–925, 1:1 steady-state affinity model; set-up: hENPP1^98–925 was coupled to the chip surface at 25°C; made in house; host or cells: 293-F cells (human), with 5 µM kifunensine
T1 sequence (P22413 98-925): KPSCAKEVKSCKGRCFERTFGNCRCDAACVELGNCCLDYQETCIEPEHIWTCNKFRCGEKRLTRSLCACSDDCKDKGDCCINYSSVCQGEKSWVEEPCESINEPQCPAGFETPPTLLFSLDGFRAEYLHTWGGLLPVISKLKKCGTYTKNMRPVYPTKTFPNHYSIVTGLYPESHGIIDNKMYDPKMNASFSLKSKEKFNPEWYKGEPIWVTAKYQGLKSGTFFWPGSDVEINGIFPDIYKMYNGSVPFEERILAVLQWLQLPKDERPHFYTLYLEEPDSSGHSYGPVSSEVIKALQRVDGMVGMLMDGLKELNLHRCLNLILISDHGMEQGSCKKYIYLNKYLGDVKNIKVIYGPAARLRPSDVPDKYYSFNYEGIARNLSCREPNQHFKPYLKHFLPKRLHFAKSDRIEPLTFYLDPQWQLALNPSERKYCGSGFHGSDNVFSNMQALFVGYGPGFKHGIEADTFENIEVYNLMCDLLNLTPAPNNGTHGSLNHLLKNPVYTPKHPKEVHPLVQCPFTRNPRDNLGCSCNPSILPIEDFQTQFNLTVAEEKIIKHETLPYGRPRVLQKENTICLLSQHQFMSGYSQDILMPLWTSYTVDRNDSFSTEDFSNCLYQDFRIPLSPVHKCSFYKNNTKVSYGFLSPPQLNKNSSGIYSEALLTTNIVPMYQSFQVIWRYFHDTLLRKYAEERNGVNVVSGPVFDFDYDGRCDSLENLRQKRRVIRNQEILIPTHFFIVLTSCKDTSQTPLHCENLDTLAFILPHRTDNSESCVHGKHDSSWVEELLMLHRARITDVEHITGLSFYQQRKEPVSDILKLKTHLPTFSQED
Procedure: The protein was diluted to 25 µg ml^−1 at pH 6.0 [10 mM 2-(N-morpholino)ethanesulfonic acid (MES), 0.005%(v/v) Tween 20] and injected to an immobilization level of 8–10 kRU. The surface was then blocked with 1 M ethanolamine pH 8.0 for 7 min. SPR experiments were performed at 25°C in SPR running buffer consisting of 50 mM Tris pH 7.4, 150 mM NaCl, 50 µM ZnCl2, 0.005%(v/v) Tween 20, 2%(v/v) DMSO. When performing dose–response testing, analytes were serially diluted (twofold or threefold), injected for 30–90 s contact time and allowed to dissociate back to baseline. The flow rate was 60 µl min^−1. Binding sensorgrams were processed, solvent-corrected and double-referenced using the Scrubber software (BioLogic Software, Australia). Responses at equilibrium for each analyte were fitted to a 1:1 steady-state affinity model that was available within Scrubber.

hENPP1 [2] = target: T1, hENPP1; test: Differential scanning fluorimetry (DSF) thermal shift of hENPP1; format: binding; settings: for ΔT m: DSF
Procedure: DSF experiments were performed using a Bio-Rad CFX96 thermocycler, with the fluorescence intensity measured with excitation and emission at 490 and 570 nm, respectively. Plates were heated from 20 to 100°C at a heating rate of 1.0°C min^−1. Protein was present at a final concentration of 15 µg ml^−1. The well volume was 20 µl. The buffer was 50 mM Tris–HCl pH 7.4, 150 mM NaCl, 50 µM ZnCl2. […] Ligands and controls were present in triplicate.

[3] = Determined by SPR, triplicates ± SD, 25°C, pH 7.4

Row | Kd (hENPP1 [1]; [3]) | Kd (hENPP1 [1]; SPR) | ΔT m (hENPP1 [2]; compounds at 100 µM) | Tm (hENPP1 [2]; DSF melting curve, Supplementary Fig. S6) | ΔT m (hENPP1 [2]; tested at 10 µM) | Structure (SMILES)
1 | 1.8 ± 0.3 µM | > 1 µM | +1.2 |  |  | Cc1cn([C@H]2C[C@H](O)[C@@H](COP(=O)(O)O)O2)c(=O)[nH]c1=O [TMP]
2 | 0.47 ± 0.06 µM |  | +1.0 | 60.34 (+/-0.03) |  | Nc1nc(=O)c2ncn([C@@H]3O[C@H](COP(=O)(O)O)[C@@H](O)[C@H]3O)c2[nH]1 [GMP]
3 | 0.1 ± 0.02 µM |  |  |  |  | COc1ccc2c(Oc3ccc(NS(N)(=O)=O)cc3)ccnc2c1 [Ex54]
4 | 0.055 ± 0.006 µM |  | +4.5 |  |  | COc1cc2ncnc(N3CCC(CNS(N)(=O)=O)CC3)c2cc1OC [QPS2]
5 | 1.1 ± 0.3 µM | > 1 µM | +1.8 |  |  | O=c1ccn([C@@H]2O[C@H](COP(=O)(O)O)[C@@H](O)[C@H]2O)c(=O)[nH]1 [UMP]

Continued, molecule first:

Row | Structure (SMILES) | Kd (hENPP1 [1]; [3]) | Kd (hENPP1 [1]; SPR) | ΔT m (hENPP1 [2]; compounds at 100 µM) | Tm (hENPP1 [2]; DSF melting curve, Supplementary Fig. S6) | ΔT m (hENPP1 [2]; tested at 10 µM)
6 | Nc1ncnc2c1ncn2[C@@H]1O[C@H](COP(=O)(O)O)[C@@H](O)[C@H]1O [AMP] | 0.103 ± 0.008 µM |  | +2.7 |  | 
7 | Nc1ccn([C@@H]2O[C@H](COP(=O)(O)O)[C@@H](O)[C@H]2O)c(=O)n1 [CMP] | 1.5 ± 0.3 µM | > 1 µM | +2.1 |  | 
8 | Nc1nc2c(ncn2[C@@H]2O[C@@H]3COP(=O)(O)O[C@H]4[C@@H](O)[C@H](n5cnc6c(N)ncnc65)O[C@@H]4COP(=O)(O)O[C@H]3[C@H]2O)c(=O)[nH]1 [3′3′-cGAMP] | 1.3 ± 0.3 µM | 1.3 µM |  |  | +1.2
9 | Nc1ncnc2c1ncn2[C@@H]1O[C@H](COP(=O)(O)OP(=O)(O)O)[C@@H](O)[C@H]1O [ADP] | 0.056 ± 0.003 µM |  | +3.3 |  | 
